Experimental data from ChEMBL document CHEMBL4396967, “In vitro cytotoxicity screening to identify novel anti-osteosarcoma therapeutics targeting pyruvate dehydrogenase kinase 2” (Bioorg Med Chem Lett, 2019).
The source made the active and inactive calls. The calls are words filed in the database; no cut-off is given here.

Experiments:
[1] = molecular target: T1, [Pyruvate dehydrogenase (acetyl-transferring)] kinase isozyme 2, mitochondrial (Homo sapiens, UniProt Q15119); assay: Inhibition of PDK2 (unknown origin) using PDCE1 as substrate at 5 uM incubated for 30 mins by kinase-Glo reagent based luminescence assay relative to control
MG-63 [2] = assay: Antiproliferative activity against human MG63 cells assessed as reduction in cell viability incubated for 72 hrs by MTT assay; type: functional, cell-based; conditions: MG-63, 72 h
MG-63 [3] = assay: Antiproliferative activity against human MG63 cells assessed as reduction in cell viability at 10 uM incubated for 72 hrs by MTT assay relative to control; type: functional; conditions: MG-63, 72 h
SAOS-2 [4] = assay: Antiproliferative activity against human Saos2 cells assessed as reduction in cell viability incubated for 72 hrs by MTT assay; type: functional, cell-based; conditions: SAOS-2, 72 h
SAOS-2 [5] = assay: Antiproliferative activity against human Saos2 cells assessed as reduction in cell viability at 10 uM incubated for 72 hrs by MTT assay relative to control; type: functional; conditions: SAOS-2, 72 h
[6] = molecular target: T1, [Pyruvate dehydrogenase (acetyl-transferring)] kinase isozyme 2, mitochondrial; assay: Inhibition of PDK2 in human MG63 cells assessed as reduction in PDC phosphorylation at 2 or 5 uM incubated for 12 hrs by Western blot analysis; type: cell-based
Homo sapiens [7] = organism: Homo sapiens; assay: Selectivity index, ratio of EC50 of PDK4 (unknown origin) to EC50 of PDK2 (unknown origin)
[8] = molecular target: [Pyruvate dehydrogenase (acetyl-transferring)] kinase isozyme 3, mitochondrial (Homo sapiens, UniProt Q15120); assay: Inhibition of PDK3 (unknown origin) using PDCE1 as substrate incubated for 30 mins by kinase-Glo reagent based luminescence assay
Homo sapiens [9] = organism: Homo sapiens; assay: Selectivity index, ratio of EC50 of PDK1 (unknown origin) to EC50 of PDK2 (unknown origin)
[10] = molecular target: T1, [Pyruvate dehydrogenase (acetyl-transferring)] kinase isozyme 2, mitochondrial; assay: Inhibition of PDK2 in human MG63 cells assessed as reduction in lactate formation at 2 to 10 uM incubated for 4 hrs; type: cell-based
[11] = molecular target: [Pyruvate dehydrogenase (acetyl-transferring)] kinase isozyme 1, mitochondrial (Homo sapiens, UniProt Q15118); assay: Inhibition of PDK1 (unknown origin) using PDCE1 as substrate incubated for 30 mins by kinase-Glo reagent based luminescence assay
Homo sapiens [12] = organism: Homo sapiens; assay: Selectivity index, ratio of EC50 of PDK3 (unknown origin) to EC50 of PDK2 (unknown origin)
[13] = molecular target: T1, [Pyruvate dehydrogenase (acetyl-transferring)] kinase isozyme 2, mitochondrial; assay: Inhibition of PDK2 (unknown origin) using PDCE1 as substrate incubated for 30 mins by kinase-Glo reagent based luminescence assay
[14] = molecular target: [Pyruvate dehydrogenase (acetyl-transferring)] kinase isozyme 4, mitochondrial (Homo sapiens, UniProt Q16654); assay: Inhibition of PDK4 (unknown origin) using PDCE1 as substrate incubated for 30 mins by kinase-Glo reagent based luminescence assay
[15] = molecular target: T1, [Pyruvate dehydrogenase (acetyl-transferring)] kinase isozyme 2, mitochondrial; assay: Binding affinity to PDK2 (unknown origin) assessed as dissociation constant by ITC analysis
[16] = molecular target: T1, [Pyruvate dehydrogenase (acetyl-transferring)] kinase isozyme 2, mitochondrial; assay: Inhibition of recombinant human N-terminal His6-tagged SUMO-fused PDK2 expressed in Escherichia coli BL-21 cells preincubated for 15 mins followed by addition of [gamma33-ATP] and measured after 90 secs by Scintillation counting method
[17] = molecular target: T1, [Pyruvate dehydrogenase (acetyl-transferring)] kinase isozyme 2, mitochondrial; assay: Inhibition of PDK2 (unknown origin)

Sequence of [Pyruvate dehydrogenase (acetyl-transferring)] kinase isozyme 1, mitochondrial (Q15118 whole entry): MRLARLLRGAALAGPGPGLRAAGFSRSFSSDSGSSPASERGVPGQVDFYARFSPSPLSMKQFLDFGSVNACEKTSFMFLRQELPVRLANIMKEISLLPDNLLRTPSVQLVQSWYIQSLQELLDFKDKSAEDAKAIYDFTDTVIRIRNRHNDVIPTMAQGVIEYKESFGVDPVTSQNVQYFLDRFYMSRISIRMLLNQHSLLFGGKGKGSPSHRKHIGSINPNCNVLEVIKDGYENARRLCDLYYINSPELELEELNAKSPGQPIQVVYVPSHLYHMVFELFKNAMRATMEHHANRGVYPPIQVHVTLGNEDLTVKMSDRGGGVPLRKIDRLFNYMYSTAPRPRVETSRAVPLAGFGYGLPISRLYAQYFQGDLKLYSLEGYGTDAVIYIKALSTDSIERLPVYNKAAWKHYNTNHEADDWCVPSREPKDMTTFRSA
Sequence of [Pyruvate dehydrogenase (acetyl-transferring)] kinase isozyme 3, mitochondrial (Q15120 whole entry): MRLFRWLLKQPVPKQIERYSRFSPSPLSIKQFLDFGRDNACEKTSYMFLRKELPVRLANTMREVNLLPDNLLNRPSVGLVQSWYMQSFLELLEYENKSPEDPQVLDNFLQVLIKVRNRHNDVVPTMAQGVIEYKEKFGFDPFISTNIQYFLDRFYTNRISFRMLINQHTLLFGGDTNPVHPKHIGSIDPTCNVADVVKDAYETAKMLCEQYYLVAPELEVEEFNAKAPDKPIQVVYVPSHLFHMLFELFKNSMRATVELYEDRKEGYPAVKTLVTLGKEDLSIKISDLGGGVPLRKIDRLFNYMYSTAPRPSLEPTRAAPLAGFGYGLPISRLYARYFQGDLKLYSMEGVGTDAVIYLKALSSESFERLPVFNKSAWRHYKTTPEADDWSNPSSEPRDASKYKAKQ
Sequence of [Pyruvate dehydrogenase (acetyl-transferring)] kinase isozyme 4, mitochondrial (Q16654 whole entry): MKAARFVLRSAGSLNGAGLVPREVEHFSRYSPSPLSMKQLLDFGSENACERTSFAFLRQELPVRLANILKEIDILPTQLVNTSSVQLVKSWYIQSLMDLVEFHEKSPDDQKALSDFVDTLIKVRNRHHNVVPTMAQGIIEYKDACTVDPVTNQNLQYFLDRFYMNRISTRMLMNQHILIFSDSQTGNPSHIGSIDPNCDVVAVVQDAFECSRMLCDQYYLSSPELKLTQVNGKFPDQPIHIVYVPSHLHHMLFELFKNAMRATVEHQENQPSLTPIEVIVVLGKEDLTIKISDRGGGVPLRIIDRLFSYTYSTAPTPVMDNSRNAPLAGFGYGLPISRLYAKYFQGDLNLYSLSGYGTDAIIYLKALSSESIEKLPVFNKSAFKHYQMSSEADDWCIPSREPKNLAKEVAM

Row | inhibition [1] | Structure (SMILES) | IC50 (MG-63 [2]) [µM] | inhibition at 10 µM (MG-63 [3]) [%] | IC50 (SAOS-2 [4]) [µM] | inhibition at 10 µM (SAOS-2 [5]) [%] | further results
1 | inactive | COc1cccc(C(=O)NCc2nc(N3CCCC3)nc(N3CCOCC3)n2)c1 | 9.2 | 53.8 | 8.1 | 68.5 | 
2 | inactive | Cc1cc(=O)n2nc(N3CCN(C(=O)Cc4c[nH]c5ccccc45)CC3)nc2[nH]1 | 9.4 | 60.8 | 7.6 | 75.9 | 
3 | inactive | COc1ccc(N2CCn3c2nnc(C(=O)NCCCN(C)C)c3=O)cc1 | 4.9 | 71.1 | 7.9 | 65.4 | 
4 | 47.5% | O=C(COc1coc(CN2CCN(c3cccc(Cl)c3)CC2)cc1=O)NC1CCCC1 | 8.5 | 62.3 | 7.7 | 65.3 | 
5 | 20.1% | Cc1cc(N2CCCCC2)nc(CNC(=O)CNC(=O)c2ccccc2)n1 | 2.7 | 88.5 | 4.8 | 77.6 | 
6 | inactive | CSc1nc(N2CCOCC2)c2cnn(CCNC(=O)C3CCCC3)c2n1 | > 10 | 53.3 | > 10 | 45.1 | 

Continued, compound first:

Row | Structure (SMILES) | inhibition [1] | IC50 (MG-63 [2]) [µM] | inhibition at 10 µM (MG-63 [3]) [%] | IC50 (SAOS-2 [4]) [µM] | inhibition at 10 µM (SAOS-2 [5]) [%] | further results
7 | O=C(C1=C(CO)C(=O)N(CCCN2CCOCC2)[C@H]1c1ccncc1)c1cccs1 | inactive | 1.2 | 86.9 | 2 | 79.3 | 
8 | CC(C)NC(=O)COc1coc(CN2CCN(c3ccccc3F)CC2)cc1=O | 79.7% | 4.7 | 78.6 | 5.6 | 75.3 | inhibition [6]: Active; Ratio EC50 (Homo sapiens [7]): 60.9; EC50 [8]: 24.5 µM; Ratio EC50 (Homo sapiens [9]): 10.6; inhibition [10]: Active; EC50 [11]: 11.7 µM; Ratio EC50 (Homo sapiens [12]): 21.9; EC50 [13]: 1.1 µM; EC50 [14]: 67 µM; Kd [15]: 2.35 µM
9 | CC(C)NC(=O)COc1coc(CN2CCN(c3ccccc3)CC2)cc1=O | 64.3% | 5.8 | 70.6 | 5.3 | 74.5 | EC50 [13]: 3.8 µM
10 | O=C(CCn1ccc(=O)[nH]c1=O)N1CCC(Cc2n[nH]c(=O)n2-c2ccccc2F)CC1 | inactive | 7.1 | 62.7 | > 10 | 48.9 | 
11 | CN(C)c1cncc(OC2CCN(C(=O)Cc3c[nH]c4ccccc34)C2)n1 (centres undefined) | inactive | 2.8 | 83.9 | 2.2 | 87.7 | 
12 | Cc1ccccc1OCC(O)Cn1c(C2CC(=O)N(C(C)(C)C)C2)nc2ccccc21 (centres undefined) | inactive | 7.7 | 72.8 | 8.9 | 59.3 | 
13 | O=C(CCn1ccc(=O)[nH]c1=O)N1CCN(C2=CC3CCCCC3N=N2)CC1 (centres undefined) | inactive | 2.1 | 84.4 | 1.8 | 86.7 | 
14 | O=S(=O)(c1ccc(O)cc1O)N1Cc2cc(O)cc(O)c2C1 |  |  |  |  |  | EC50 [16]: 0.456 µM
15 | CNC(=O)COc1coc(CN2CCN(c3ccccc3)CC2)cc1=O | 54.1% | 7.9 | 66.1 | 6.7 | 71.2 | EC50 [13]: 5.2 µM
16 | CN(C)C(=O)c1ccc(S(=O)(=O)c2ccc(NC(=O)[C@@](C)(O)C(F)(F)F)c(Cl)c2)cc1 |  |  |  |  |  | EC50 [17]: 0.08 µM
